Experimental data taken from ChEMBL document CHEMBL3991601, “The target landscape of clinical kinase drugs” (Science, 2017).
Activity calls are given as the source filed them.

How the values were obtained:
[1] = biological target: Activin receptor type-1-like (Homo sapiens, UniProt P37023)
[2] = biological target: Eukaryotic peptide chain release factor GTP-binding subunit ERF3B (Homo sapiens, UniProt Q8IYD1)
[3] = biological target: Tyrosine-protein kinase JAK2 (Homo sapiens, UniProt O60674)
[4] = biological target: Cyclin-dependent kinase 18 (Homo sapiens, UniProt Q07002)
[5] = biological target: Mast/stem cell growth factor receptor Kit (Homo sapiens, UniProt P10721)
[6] = biological target: Cyclin-dependent kinase 9 (Homo sapiens, UniProt P50750)
[7] = biological target: Nucleoside diphosphate kinase B (Homo sapiens, UniProt P22392)
[8] = biological target: Putative nucleoside diphosphate kinase (Homo sapiens, UniProt O60361)
[9] = biological target: Ras-related C3 botulinum toxin substrate 1 (Homo sapiens, UniProt P63000)
[10] = biological target: 5'-AMP-activated protein kinase subunit gamma-1 (Homo sapiens, UniProt P54619)
[11] = biological target: T1, Uncharacterized protein FLJ45252 (Homo sapiens, UniProt Q6ZSR9)
T1 sequence (Q6ZSR9 whole entry): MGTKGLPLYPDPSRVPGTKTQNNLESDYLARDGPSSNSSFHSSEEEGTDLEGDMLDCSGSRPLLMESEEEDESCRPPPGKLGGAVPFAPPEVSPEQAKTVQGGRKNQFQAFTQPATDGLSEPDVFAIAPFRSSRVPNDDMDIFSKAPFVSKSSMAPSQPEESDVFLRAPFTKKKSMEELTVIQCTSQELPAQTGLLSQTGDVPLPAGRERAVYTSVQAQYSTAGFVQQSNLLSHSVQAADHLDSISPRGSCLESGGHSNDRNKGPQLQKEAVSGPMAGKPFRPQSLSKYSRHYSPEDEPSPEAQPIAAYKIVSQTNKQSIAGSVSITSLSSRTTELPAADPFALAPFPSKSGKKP

[12] = biological target: T2, General transcription and DNA repair factor IIH helicase subunit XPD (Homo sapiens, UniProt P18074)
T2 sequence (P18074 whole entry): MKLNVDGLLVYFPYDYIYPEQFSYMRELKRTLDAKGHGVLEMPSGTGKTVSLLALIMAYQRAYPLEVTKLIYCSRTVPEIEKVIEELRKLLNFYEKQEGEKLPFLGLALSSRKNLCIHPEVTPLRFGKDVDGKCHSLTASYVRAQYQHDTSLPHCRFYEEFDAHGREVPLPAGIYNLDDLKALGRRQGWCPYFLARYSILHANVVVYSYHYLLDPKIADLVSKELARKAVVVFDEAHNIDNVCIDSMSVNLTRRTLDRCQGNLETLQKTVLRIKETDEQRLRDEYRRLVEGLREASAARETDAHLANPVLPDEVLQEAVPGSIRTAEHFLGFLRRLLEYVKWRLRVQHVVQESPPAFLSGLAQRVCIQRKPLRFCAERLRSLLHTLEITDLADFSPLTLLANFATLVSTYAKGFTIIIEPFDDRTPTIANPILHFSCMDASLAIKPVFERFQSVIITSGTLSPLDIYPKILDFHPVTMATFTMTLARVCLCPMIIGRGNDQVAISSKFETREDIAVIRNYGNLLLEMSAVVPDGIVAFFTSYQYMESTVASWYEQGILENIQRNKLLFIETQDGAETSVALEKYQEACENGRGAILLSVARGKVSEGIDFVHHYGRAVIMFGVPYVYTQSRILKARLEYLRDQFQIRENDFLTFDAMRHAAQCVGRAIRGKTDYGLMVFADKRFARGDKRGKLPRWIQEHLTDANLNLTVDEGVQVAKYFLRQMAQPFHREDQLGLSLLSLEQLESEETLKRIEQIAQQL

[13] = biological target: 5'-AMP-activated protein kinase subunit gamma-2 (Homo sapiens, UniProt Q9UGJ0)
Actin-related protein 3 = Actin-related protein 3 (Homo sapiens, UniProt P61158)
Further: in the data inactive means no Kd found up to 30 µM.

Chain of Cyclin-dependent kinase 9 (P50750 whole entry): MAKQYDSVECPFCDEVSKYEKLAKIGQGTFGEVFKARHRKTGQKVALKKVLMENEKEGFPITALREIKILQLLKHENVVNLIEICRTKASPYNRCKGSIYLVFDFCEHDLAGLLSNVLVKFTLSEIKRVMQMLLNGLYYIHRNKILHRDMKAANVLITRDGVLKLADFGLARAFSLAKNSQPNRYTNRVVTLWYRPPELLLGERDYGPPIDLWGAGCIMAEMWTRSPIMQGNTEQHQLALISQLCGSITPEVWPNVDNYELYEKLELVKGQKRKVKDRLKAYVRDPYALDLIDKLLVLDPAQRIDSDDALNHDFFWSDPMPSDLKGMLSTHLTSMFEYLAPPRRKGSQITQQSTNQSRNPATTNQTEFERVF
Chain of Tyrosine-protein kinase JAK2 (O60674 whole entry): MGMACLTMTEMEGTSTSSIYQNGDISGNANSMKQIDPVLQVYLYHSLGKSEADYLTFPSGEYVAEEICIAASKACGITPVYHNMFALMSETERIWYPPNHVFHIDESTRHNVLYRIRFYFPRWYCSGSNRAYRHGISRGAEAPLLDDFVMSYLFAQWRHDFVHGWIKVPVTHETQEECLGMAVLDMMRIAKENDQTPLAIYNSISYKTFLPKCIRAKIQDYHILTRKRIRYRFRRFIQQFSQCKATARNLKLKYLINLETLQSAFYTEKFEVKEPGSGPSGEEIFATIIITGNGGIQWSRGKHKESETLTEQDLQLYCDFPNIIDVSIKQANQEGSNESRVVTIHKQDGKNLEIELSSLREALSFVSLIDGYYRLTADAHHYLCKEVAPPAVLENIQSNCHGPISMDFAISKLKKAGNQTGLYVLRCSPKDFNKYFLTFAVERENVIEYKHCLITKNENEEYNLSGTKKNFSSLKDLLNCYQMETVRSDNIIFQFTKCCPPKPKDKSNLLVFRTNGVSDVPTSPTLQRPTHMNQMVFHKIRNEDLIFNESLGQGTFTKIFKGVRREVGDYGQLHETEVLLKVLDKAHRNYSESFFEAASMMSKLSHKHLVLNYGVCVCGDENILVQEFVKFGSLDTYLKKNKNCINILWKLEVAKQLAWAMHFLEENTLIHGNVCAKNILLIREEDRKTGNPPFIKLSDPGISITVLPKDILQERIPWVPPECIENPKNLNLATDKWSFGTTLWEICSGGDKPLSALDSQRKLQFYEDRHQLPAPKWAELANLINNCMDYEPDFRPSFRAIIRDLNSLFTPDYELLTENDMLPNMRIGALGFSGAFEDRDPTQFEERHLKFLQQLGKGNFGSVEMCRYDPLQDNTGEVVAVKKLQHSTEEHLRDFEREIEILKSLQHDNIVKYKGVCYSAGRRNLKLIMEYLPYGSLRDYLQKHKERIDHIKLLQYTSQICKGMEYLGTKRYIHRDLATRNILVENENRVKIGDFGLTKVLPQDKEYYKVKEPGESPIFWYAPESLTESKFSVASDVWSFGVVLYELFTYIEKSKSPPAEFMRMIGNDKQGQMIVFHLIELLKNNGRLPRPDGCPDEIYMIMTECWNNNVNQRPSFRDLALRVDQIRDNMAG
Chain of Mast/stem cell growth factor receptor Kit (P10721 whole entry): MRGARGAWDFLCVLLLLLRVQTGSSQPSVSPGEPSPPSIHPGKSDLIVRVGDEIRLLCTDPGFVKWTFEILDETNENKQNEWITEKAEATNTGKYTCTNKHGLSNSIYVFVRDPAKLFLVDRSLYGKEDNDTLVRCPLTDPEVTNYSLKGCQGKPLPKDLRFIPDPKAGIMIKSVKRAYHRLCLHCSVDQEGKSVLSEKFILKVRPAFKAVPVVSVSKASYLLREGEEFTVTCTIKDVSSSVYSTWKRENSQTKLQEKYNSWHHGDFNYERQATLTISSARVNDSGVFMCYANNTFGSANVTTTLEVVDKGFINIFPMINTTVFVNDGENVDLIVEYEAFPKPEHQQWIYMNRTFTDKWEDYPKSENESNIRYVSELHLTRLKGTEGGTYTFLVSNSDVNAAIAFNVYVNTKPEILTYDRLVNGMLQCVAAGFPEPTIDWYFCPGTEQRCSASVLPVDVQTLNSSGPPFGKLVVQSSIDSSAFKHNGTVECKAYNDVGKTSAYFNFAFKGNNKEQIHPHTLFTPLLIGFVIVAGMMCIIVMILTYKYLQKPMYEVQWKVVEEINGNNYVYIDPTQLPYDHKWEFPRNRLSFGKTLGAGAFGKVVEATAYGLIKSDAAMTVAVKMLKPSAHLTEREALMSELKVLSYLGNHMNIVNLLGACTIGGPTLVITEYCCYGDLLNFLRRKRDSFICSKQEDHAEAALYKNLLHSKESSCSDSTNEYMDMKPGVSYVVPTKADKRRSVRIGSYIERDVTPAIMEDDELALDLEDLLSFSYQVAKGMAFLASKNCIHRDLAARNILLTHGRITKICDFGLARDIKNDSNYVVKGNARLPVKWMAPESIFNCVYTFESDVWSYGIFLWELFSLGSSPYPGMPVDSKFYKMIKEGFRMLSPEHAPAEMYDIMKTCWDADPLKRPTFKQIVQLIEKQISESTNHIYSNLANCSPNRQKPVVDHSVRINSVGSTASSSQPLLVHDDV
Chain of Nucleoside diphosphate kinase B (P22392 whole entry): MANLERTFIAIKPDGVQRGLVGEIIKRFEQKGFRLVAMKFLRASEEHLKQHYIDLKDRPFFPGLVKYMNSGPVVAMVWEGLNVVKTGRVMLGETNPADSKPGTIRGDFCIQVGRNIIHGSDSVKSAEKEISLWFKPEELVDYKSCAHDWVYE
Chain of Eukaryotic peptide chain release factor GTP-binding subunit ERF3B (Q8IYD1 whole entry): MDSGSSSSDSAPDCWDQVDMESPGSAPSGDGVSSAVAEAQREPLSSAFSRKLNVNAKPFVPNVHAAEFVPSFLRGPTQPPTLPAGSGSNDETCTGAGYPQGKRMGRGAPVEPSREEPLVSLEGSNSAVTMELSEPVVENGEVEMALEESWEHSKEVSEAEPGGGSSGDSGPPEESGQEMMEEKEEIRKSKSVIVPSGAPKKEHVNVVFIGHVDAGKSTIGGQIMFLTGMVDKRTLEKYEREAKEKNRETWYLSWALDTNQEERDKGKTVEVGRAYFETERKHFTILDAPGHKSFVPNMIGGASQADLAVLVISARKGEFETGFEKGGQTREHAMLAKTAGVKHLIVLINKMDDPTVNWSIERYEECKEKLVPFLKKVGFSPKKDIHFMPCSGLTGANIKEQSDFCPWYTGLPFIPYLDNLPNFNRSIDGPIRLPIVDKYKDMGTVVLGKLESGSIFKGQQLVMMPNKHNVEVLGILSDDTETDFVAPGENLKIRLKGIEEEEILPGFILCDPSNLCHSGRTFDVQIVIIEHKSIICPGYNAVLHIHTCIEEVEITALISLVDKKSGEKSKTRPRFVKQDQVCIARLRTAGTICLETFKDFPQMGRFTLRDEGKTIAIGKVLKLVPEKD
Chain of Activin receptor type-1-like (P37023 whole entry): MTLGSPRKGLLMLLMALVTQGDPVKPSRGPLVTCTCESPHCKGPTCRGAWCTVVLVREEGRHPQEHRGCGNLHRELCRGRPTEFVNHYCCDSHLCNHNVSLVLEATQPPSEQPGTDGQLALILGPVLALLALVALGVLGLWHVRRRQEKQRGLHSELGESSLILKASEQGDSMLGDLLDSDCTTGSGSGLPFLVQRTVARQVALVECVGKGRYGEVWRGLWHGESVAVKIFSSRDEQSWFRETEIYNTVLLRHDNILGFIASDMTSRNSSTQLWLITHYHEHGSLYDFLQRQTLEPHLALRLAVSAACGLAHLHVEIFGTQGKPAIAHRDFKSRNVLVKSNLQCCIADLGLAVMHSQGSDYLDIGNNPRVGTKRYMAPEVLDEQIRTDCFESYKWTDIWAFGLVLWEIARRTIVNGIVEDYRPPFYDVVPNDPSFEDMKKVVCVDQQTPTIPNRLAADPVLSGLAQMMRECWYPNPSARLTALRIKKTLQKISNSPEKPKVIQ
Chain of Cyclin-dependent kinase 18 (Q07002 whole entry): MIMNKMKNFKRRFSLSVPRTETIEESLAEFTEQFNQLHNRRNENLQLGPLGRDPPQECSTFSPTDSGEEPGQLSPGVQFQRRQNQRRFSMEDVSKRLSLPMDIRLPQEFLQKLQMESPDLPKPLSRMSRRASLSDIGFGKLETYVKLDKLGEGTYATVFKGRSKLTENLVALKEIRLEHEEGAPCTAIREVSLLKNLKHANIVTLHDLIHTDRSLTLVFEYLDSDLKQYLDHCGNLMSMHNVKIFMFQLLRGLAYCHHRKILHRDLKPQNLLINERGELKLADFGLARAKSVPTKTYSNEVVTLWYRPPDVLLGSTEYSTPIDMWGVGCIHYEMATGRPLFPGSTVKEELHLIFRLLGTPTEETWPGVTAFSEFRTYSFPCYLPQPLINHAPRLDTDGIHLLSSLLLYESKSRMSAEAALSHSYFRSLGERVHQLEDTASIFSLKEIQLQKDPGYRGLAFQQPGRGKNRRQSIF
Chain of 5'-AMP-activated protein kinase subunit gamma-1 (P54619 whole entry): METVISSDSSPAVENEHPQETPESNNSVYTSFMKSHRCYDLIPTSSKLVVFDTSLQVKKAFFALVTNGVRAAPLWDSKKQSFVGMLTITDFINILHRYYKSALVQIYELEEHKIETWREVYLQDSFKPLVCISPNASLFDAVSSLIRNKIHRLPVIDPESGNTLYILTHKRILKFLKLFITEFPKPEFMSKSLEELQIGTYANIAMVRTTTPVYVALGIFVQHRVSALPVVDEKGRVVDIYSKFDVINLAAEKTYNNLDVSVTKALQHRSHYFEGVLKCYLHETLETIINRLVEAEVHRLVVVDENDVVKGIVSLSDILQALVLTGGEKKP
Chain of Putative nucleoside diphosphate kinase (O60361 whole entry): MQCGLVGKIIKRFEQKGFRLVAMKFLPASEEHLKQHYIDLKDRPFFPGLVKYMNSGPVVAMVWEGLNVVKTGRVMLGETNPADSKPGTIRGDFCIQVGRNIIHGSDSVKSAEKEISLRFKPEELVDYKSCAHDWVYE

Question: For `Cn1cc(-c2cnc3ccc4ccc(CS(=O)(=O)NCc5ccccn5)cc4c(=O)c3c2)cn1` [MK-8033], which Kd [1] is on record?
Answer: > 30 µM (inactive)

Question: What about the Kd [2] of the same compound?
Answer: > 30 µM (inactive)

Question: What about the Kd [3] of the same compound?
Answer: > 30 µM (inactive)

Question: `CN(C[C@@H]1COCCO1)S(=O)(=O)Nc1ccc2ccc3ncc(-c4cnn(C)c4)cc3c(=O)c2c1` [MK-2461] was tested. Which Kd [4] did it give?
Answer: > 30 µM (inactive)

Question: How did the Kd [2] turn out when `CC(=O)c1cnc2ccc(-c3cc(Cl)c(O)c(Cl)c3)nc2c1N[C@H]1CC[C@H](CN(C)C)CC1` was run?
Answer: > 30 µM (inactive)

Question: With `CC(C)(C)c1nc(-c2cccc(NS(=O)(=O)c3c(F)cccc3F)c2F)c(-c2ccnc(N)n2)s1` [DABRAFENIB] as the compound, how does the Kd [2] read?
Answer: > 30 µM (inactive)

Question: With `CCn1cc(-c2ccnc3[nH]c(-c4cccc(CN(C)C)c4)cc23)c(-c2ccc(NC(=O)N(C)C)cc2)n1` [GSK-1070916] as the compound, how does the Kd [3] read?
Answer: > 30 µM (inactive)

Question: For `C[C@@H](N)c1ccc(C(=O)Nc2ccnc3[nH]ccc23)cc1` [Y-39983], which Kd [5] is on record?
Answer: > 30 µM (inactive)

Question: Which Kd [3] does the source give for `N#CC1(c2ccc(NC(=O)c3cccnc3NCc3ccncc3)cc2)CCCC1` [RIVOCERANIB] here?
Answer: > 30 µM (inactive)

Question: With `CO[C@H]1C[C@@H]2CC[C@@H](C)[C@@](O)(O2)C(=O)C(=O)N2CCCC[C@H]2C(=O)O[C@H]([C@H](C)C[C@@H]2CC[C@@H](O)[C@H](OC)C2)CC(=O)[C@H](C)/C=C(\C)[C@@H](O)[C@@H](OC)C(=O)[C@H](C)C[C@H](C)/C=C/C=C/C=C/1C` [SIROLIMUS] as the compound, how does the Kd [1] read?
Answer: > 30 µM (inactive)

Question: And the Kd [4]?
Answer: > 30 µM (inactive)

Question: And the Kd [6]?
Answer: > 30 µM (inactive)

Question: What about the Kd [3] of the same compound?
Answer: > 30 µM (inactive)

Question: Which Kd [7] does the source give for `COc1cc(Nc2ncc3c(n2)-c2ccc(Cl)cc2C(c2c(F)cccc2OC)=NC3)ccc1C(=O)O` [ALISERTIB] here?
Answer: > 30 µM (inactive)

Question: And the Kd [8]?
Answer: > 30 µM (inactive)

Question: For `Cc1cc(Nc2ncnc3ccc(NC4=NC(C)(C)CO4)cc23)ccc1Oc1ccn2ncnc2c1` [TUCATINIB], which Kd [9] is on record?
Answer: > 30 µM (inactive)

Question: What about the Kd [4] of the same compound?
Answer: > 30 µM (inactive)

Question: What does the source list for `O=C(Cc1ccc(-c2ccc(OCCN3CCOCC3)cc2)cn1)NCc1ccccc1` [TIRBANIBULIN]?
Answer: Kd [1]: > 30 µM (inactive); Kd [2]: > 30 µM (inactive); Kd [3]: > 30 µM (inactive)

Question: How did the Kd [2] turn out when `N#CC[C@H](C1CCCC1)n1cc(-c2ncnc3[nH]ccc23)cn1` [RUXOLITINIB] was run?
Answer: > 30 µM (inactive)

Question: Which results are given for `Cc1cc(C(=O)NOCCO)c(Nc2ccc(I)cc2F)n(C)c1=O` [AZD-8330]?
Answer: Kd [1]: > 30 µM (inactive); Kd [3]: > 30 µM (inactive)

Question: Which results are given for `C#Cc1cccc(Nc2ncnc3cc(OC)c(OCCCCCCC(=O)NO)cc23)c1` [CUDC-101]?
Answer: Kd [1]: > 30 µM (inactive); Kd [7]: 0.142 µM (active); Kd [3]: > 30 µM (inactive)

Question: Which results are given for `Cc1nc2cc(-c3nn(C(C)C)c4ncnc(N)c34)ccc2o1`?
Answer: Kd [2]: > 30 µM (inactive); Kd [3]: > 30 µM (inactive)

Question: Which results are given for `CO[C@H]1C[C@@H]2CC[C@@H](C)[C@@](O)(O2)C(=O)C(=O)N2CCCC[C@H]2C(=O)O[C@H]([C@H](C)C[C@@H]2CC[C@@H](OP(C)(C)=O)[C@H](OC)C2)CC(=O)[C@H](C)/C=C(\C)[C@@H](O)[C@@H](OC)C(=O)[C@H](C)C[C@H](C)/C=C/C=C/C=C/1C` [RIDAFOROLIMUS]?
Answer: Kd [2]: > 30 µM (inactive); Kd [6]: > 30 µM (inactive); Kd [3]: > 30 µM (inactive)

Question: With `CNC(=O)c1nn(C)c2c1C(C)(C)Cc1cnc(Nc3ccc(N4CCN(C)CC4)cc3)nc1-2` [MILCICLIB] as the compound, how does the Kd [7] read?
Answer: > 30 µM (inactive)

Question: For `CCCCCCCCCCCCCCCCCCOP(=O)([O-])OC1CC[N+](C)(C)CC1` [PERIFOSINE], which Kd [9] is on record?
Answer: > 30 µM (inactive)

Question: `COc1ncc(-c2ccc3nccc(-c4ccnnc4)c3c2)cc1NS(=O)(=O)c1ccc(F)cc1F` [OMIPALISIB] was tested. Which Kd [7] did it give?
Answer: > 30 µM (inactive)

Question: What about the Kd [5] of the same compound?
Answer: > 30 µM (inactive)

Question: What about the Kd [8] of the same compound?
Answer: > 30 µM (inactive)

Question: How did the Kd [2] turn out when `C[C@H]1CNCCCN1S(=O)(=O)c1cccc2cncc(F)c12` was run?
Answer: > 30 µM (inactive)

Question: What does the source list for `Cc1cnc(NC(=O)Nc2cc(Br)c(C)cc2OC[C@@H]2CNCCO2)cn1` [RABUSERTIB]?
Answer: Kd [2]: > 30 µM (inactive); Kd [3]: > 30 µM (inactive)

Question: `Cc1cccc(-c2nn3c(c2-c2ccnc4ccc(C(N)=O)cc24)CCC3)n1` [GALUNISERTIB] was tested. Which Kd [2] did it give?
Answer: > 30 µM (inactive)

Question: `O=C(Nc1nc2cccc(-c3ccc(CN4CCS(=O)(=O)CC4)cc3)n2n1)C1CC1` [FILGOTINIB] was tested. Which Kd [10] did it give?
Answer: > 30 µM (inactive)

Question: What about the Kd [9] of the same compound?
Answer: > 30 µM (inactive)

Question: What about the Kd [11] of the same compound?
Answer: 4.38 µM (active)

Question: What about the Kd [12] of the same compound?
Answer: > 30 µM (inactive)

Question: What about the Kd [13] of the same compound?
Answer: > 30 µM (inactive)

Question: How did the Kd (Actin-related protein 3) turn out when `Cc1nc(Nc2n[nH]c3c2CN(C(=O)N[C@H](CN(C)C)c2ccccc2)C3(C)C)c2sccc2n1` [PF-03758309] was run?
Answer: > 30 µM (inactive)

Question: And the Kd [4]?
Answer: 0.067 µM (active)

Question: With `Cc1csc(-c2nnc(Nc3ccc(Oc4ncccc4-c4ccnc(N)n4)cc3)c3ccccc23)c1` [AMG-900] as the compound, how does the Kd [1] read?
Answer: > 30 µM (inactive)

Question: What about the Kd [3] of the same compound?
Answer: > 30 µM (inactive)

Question: `CNC(=O)c1ccccc1Sc1ccc2c(/C=C/c3ccccn3)n[nH]c2c1` [AXITINIB] was tested. Which Kd [2] did it give?
Answer: > 30 µM (inactive)

Question: `CN1CCN(CCOc2cc(OC3CCOCC3)c3c(Nc4c(Cl)ccc5c4OCO5)ncnc3c2)CC1` [SARACATINIB] was tested. Which Kd [7] did it give?
Answer: > 30 µM (inactive)

Question: What about the Kd [3] of the same compound?
Answer: > 30 µM (inactive)

Question: Which Kd [3] does the source give for `CNC(=O)c1cc(Oc2ccc(NC(=O)Nc3cc(C(C)(C)C)nn3-c3ccc4ncccc4c3)c(F)c2)ccn1` [REBASTINIB] here?
Answer: 4.46 µM (active)

Question: How did the Kd [2] turn out when `CO[C@H]1C[C@@H]2CC[C@@H](C)[C@@](O)(O2)C(=O)C(=O)N2CCCC[C@H]2C(=O)O[C@H]([C@H](C)C[C@@H]2CC[C@@H](OC(=O)C(C)(CO)CO)[C@H](OC)C2)CC(=O)[C@H](C)/C=C(\C)[C@@H](O)[C@@H](OC)C(=O)[C@H](C)C[C@H](C)/C=C/C=C/C=C/1C` [TEMSIROLIMUS] was run?
Answer: > 30 µM (inactive)

Question: What about the Kd [6] of the same compound?
Answer: > 30 µM (inactive)

Question: What about the Kd [3] of the same compound?
Answer: > 30 µM (inactive)

Question: How did the Kd [1] turn out when `Cn1cnc2c(F)c(Nc3ccc(Br)cc3F)c(C(=O)NOCCO)cc21` [BINIMETINIB] was run?
Answer: > 30 µM (inactive)

Question: `COc1c(OCCCN2CCOCC2)ccc2c1N=C(NC(=O)c1cnc(N)nc1)N1CCN=C21` [COPANLISIB] was tested. Which Kd [10] did it give?
Answer: > 30 µM (inactive)

Question: What about the Kd [5] of the same compound?
Answer: > 30 µM (inactive)

Question: What about the Kd [2] of the same compound?
Answer: > 30 µM (inactive)

Question: And the Kd [4]?
Answer: > 30 µM (inactive)

Question: What about the Kd [11] of the same compound?
Answer: > 30 µM (inactive)

Question: What about the Kd [12] of the same compound?
Answer: > 30 µM (inactive)

Question: And the Kd [13]?
Answer: > 30 µM (inactive)

Question: How did the Kd [5] turn out when `O=c1[nH]ccc2cc(OC3CCNCC3)ccc12` [SAR-407899 FREE BASE] was run?
Answer: > 30 µM (inactive)

Question: What about the Kd [2] of the same compound?
Answer: > 30 µM (inactive)

Question: What does the source list for `NC(=O)Nc1cc(-c2cccc(F)c2)sc1C(=O)N[C@H]1CCCNC1` [AZD-7762]?
Answer: Kd [1]: > 30 µM (inactive); Kd (Actin-related protein 3): > 30 µM (inactive)

Question: How did the Kd [1] turn out when `O=C(Nc1c[nH]nc1-c1nc2cc(CN3CCOCC3)ccc2[nH]1)NC1CC1` [AT-9283] was run?
Answer: 0.015 µM (active)

Question: Which Kd [1] does the source give for `CCn1c(C(=O)N(C2CC2)C2CC2)cc2c3c(ncn3C)c(Nc3cc(C)n(C)n3)nc21` [BMS-911543] here?
Answer: > 30 µM (inactive)

Question: And the Kd [2]?
Answer: > 30 µM (inactive)

Question: What about the Kd [3] of the same compound?
Answer: > 30 µM (inactive)

Question: For `FC(F)(F)c1ccc(/C=C/c2nc(COc3ccc(CCCCn4ccnn4)cc3)co2)cc1` [MUBRITINIB], which Kd [7] is on record?
Answer: > 30 µM (inactive)
